The source made the active and inactive calls. No cut-off for these calls is given here.
These compounds were tested on SARS-CoV-2 (assay: Antiviral activity against SARS-CoV-2 infected in vero E6 cells assessed as inhibition of viral replication at 100 uM preincubated for 1 hr followed by viral infection for 24 hrs by qRT-PCR analysis). Settings: Severe acute respiratory syndrome coronavirus 2, Vero C1008, time 25.0 hrs.
Assay type: functional, organism-based
In the case of `O=C(O)c1cccc(-c2ccc(CNCCc3ccccc3)o2)c1`, the Activity is reported as “Active”.
`Cc1nn(-c2ccccc2)c(Oc2ccccc2)c1CCC(=O)Nc1ccccc1` was tested, and the Activity was “Active”.
In the case of `Cn1cc(-c2cc3n(n2)CCC(=O)N3CC(=O)NCc2ccco2)c2ccccc21`, the Activity is reported as “Active”.
For `CCn1ccc(-c2nc(C)nn2-c2cc(S(N)(=O)=O)ccc2F)cc1=O`, the Activity was “Active”.
For `O=C(O)c1ccc(OCc2cccc3ccccc23)cc1`, the Activity was “Active”.
`Cc1ccc2nc(C34CC5CC(CC(C5)C3)C4)cc(C(=O)O)c2c1` was tested, and the Activity was “Active”.
In the case of `CC(=O)N1CCN(c2nc(C)cc(Nc3ccccc3)n2)CC1`, the Activity is reported as “Active”.

The compounds below were run on SARS-CoV-2 (assay: Antiviral activity against SARS-CoV-2 infected in vero E6 cells assessed as inhibition of viral replication at 100 uM preincubated for 1 hr followed by viral infection for 2 hrs by qRT-PCR analysis). Settings: Severe acute respiratory syndrome coronavirus 2, Vero C1008, time 3.0 hrs.
Assay type: functional, organism-based
With `O=C(O)c1cccc(-c2ccc(CNCCc3ccccc3)o2)c1` the Activity was “Active”.

— ChEMBL document CHEMBL5038605, “Probing the Allosteric Inhibition Mechanism of a Spike Protein Using Molecular Dynamics Simulations and Active Compound Identifications” (J Med Chem, 2022)
